Results taken from US8993591B2, “1,2,4-triazolo[4,3-a] pyridine derivatives and their use as positive allosteric modulators of MGLUR2 receptors” (Janssen Pharmaceuticals, Inc., priority 2010, dated 2015).
Structures can show the parent of a compound that is named as a salt.

Biological target: T1, human mGluR2 receptor (Homo sapiens, UniProt Q14416)
T1 construct: expressed in transfected cells; host or cells: CHO cells (membranes)
Assay: [35S]GTPγS binding assay, mGluR2 positive allosteric modulation (PAM)
Format: biochemical
Settings: membranes from CHO cells transfected with human mGluR2, in presence of glutamate at EC20; for EC50: -log EC50 with EC50 in M, read-out: GTPγS - hmGluR2 PAM pEC50 (converted)
Description: The [^35S]GTPγS binding assay is a functional membrane-based assay used to study G-protein coupled receptor (GPCR) function whereby incorporation of a non-hydrolysable form of GTP, [^35S]GTPγS (guanosine 5′-triphosphate, labelled with […] ^35S), is measured. The G-protein α subunit catalyzes the exchange of guanosine 5′-diphosphate (GDP) by guanosine triphosphate (GTP) and on activation of the GPCR by an agonist, [^35S]GTPγS, becomes incorporated and cannot be cleaved to continue the exchange cycle (Harper (1998) Current Protocols in Pharmacology 2.6.1-10, John Wiley & Sons, Inc.). […] Here we describe the use of the [^35S]GTPγS binding assay using membranes from cells transfected with the human mGluR2 receptor and adapted from Schaffhauser et al. ((2003) Molecular Pharmacology 4:798-810) for the detection of the positive allosteric modulation (PAM) properties of the compounds of this invention.
CHO-cells were cultured to pre-confluence and stimulated with 5 mM butyrate for 24 h. Cells were then collected by scraping in PBS and cell suspension was centrifuged (10 min at 4000 RPM in benchtop centrifuge). Supernatant was discarded and pellet gently resuspended in 50 mM Tris-HCl, pH 7.4 by mixing with a vortex and pipetting up and down. The suspension was centrifuged at 16,000 RPM (Sorvall RC-5C plus rotor SS-34) for 10 minutes and the supernatant discarded. The pellet was homogenized in 5 mM Tris-HCl, pH 7.4 using an ultra-turrax homogenizer and centrifuged again (18,000 RPM, 20 min, 4° C.). The final pellet was resuspended in 50 mM Tris-HCl, pH 7.4 and stored at −80° C. in appropriate aliquots before use. Protein concentration was determined by the Bradford method (Bio-Rad, USA) with bovine serum albumin as standard.
Measurement of mGluR2 positive allosteric modulatory activity of test compounds was performed as follows. Test compounds and glutamate were diluted in assay buffer containing 10 mM HEPES acid, 10 mM HEPES salt, pH 7.4, 100 mM NaCl, 3 mM MgCl2 and 10 μM GDP. Human mGlu2 receptor-containing membranes were thawed on ice and diluted in assay buffer supplemented with 14 μg/ml saponin. Membranes were pre-incubated with compound alone or together with a predefined (˜EC20) concentration of glutamate (PAM assay) for 30 min at 30° C. After addition of [^35S]GTPγS (f.c. 0.1 nM), assay mixtures were shaken briefly and further incubated to allow [^35S]GTPγS incorporation on activation (30 minutes, 30° C.). Final assay mixtures contained 7 μg of membrane protein in 10 mM HEPES acid, 10 mM HEPES salt, pH 7.4, 100 mM NaCl, 3 mM MgCl2, 10 μM GDP and 10 μg/ml saponin. Total reaction volume was 200 μl. Reactions were terminated by rapid filtration through Unifilter-96 GF/B plates (Perkin Elmer, Mass., USA) using a 96-well filtermate universal harvester. Filters were washed 6 times with ice-cold 10 mM NaH2PO4/10 mM Na2HPO4, pH 7.4. Filters were then air-dried, and 40 μl of liquid scintillation cocktail (Microscint-O) was added to each well. Membrane-bound radioactivity was counted in a Microplate Scintillation and Luminescence Counter from Perkin Elmer.
The concentration-response curves of representative compounds of the present invention-obtained in the presence of EC20 of mGluR2 agonist glutamate to determine positive allosteric modulation (PAM)-were generated using the Lexis software interface (developed at J&J).

T1 sequence (Q14416 19-872): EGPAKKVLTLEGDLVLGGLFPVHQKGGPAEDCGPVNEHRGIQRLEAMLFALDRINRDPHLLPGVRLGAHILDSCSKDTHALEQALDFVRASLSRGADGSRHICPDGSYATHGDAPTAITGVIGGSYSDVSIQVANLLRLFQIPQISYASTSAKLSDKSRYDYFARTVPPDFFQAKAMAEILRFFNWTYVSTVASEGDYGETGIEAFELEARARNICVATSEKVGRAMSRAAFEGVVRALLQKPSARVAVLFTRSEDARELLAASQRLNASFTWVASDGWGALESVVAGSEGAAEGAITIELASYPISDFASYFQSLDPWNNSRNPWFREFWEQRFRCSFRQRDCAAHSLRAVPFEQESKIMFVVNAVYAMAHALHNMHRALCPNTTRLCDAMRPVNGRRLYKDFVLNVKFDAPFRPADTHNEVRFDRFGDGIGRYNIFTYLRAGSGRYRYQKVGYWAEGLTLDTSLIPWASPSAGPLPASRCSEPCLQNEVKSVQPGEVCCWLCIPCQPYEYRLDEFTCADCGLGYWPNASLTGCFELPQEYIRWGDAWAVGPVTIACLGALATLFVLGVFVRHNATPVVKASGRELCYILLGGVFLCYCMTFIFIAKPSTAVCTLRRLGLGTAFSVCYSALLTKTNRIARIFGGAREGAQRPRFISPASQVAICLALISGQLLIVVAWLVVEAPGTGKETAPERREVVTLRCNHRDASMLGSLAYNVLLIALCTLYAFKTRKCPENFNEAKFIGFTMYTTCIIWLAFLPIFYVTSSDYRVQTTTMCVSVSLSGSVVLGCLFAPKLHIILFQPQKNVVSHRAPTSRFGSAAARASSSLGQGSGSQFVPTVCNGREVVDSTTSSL

SMILES	EC50 [µM]	GTPγS - hmGluR2 PAM Emax (maximal % effect relative to the control glutamate response) [%]	Emax (maximal % effect relative to the control glutamate response, read-out: GTPγS - hmGluR2 PAM Emax) [%]
CC1(c2ccccc2)CN(Cc2ccn3c(CC4CC4)nnc3c2C(F)(F)F)CCO1 (single isomer, unassigned) [Compound 8b, 3-(cyclopropylmethyl)-7-[(2-methyl-2-phenyl-4-morpholinyl)methyl]-8-(trifluoromethyl)-1,2,4-triazolo[4,3-a]pyridine (*S) hydrochloride hydrate (.1.3HCl.1.6H2O)]	0.00832	243	
FC(F)(F)c1c(CN2CCO[C@@H](c3ccccc3)C2)ccn2c(CC3CC3)nnc12 [Compound 4, 3-(Cyclopropylmethyl)-7-[[(2S)-2-phenyl-4-morpholinyl]methyl]-8-(trifluoromethyl)-1,2,4-triazolo[4,3-c]pyridine]	0.324		294
